# Assay results: PubChem BioAssay (NCI)
#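 Following 48 hours of exposure in 96-well plates, responses at five concentrations were used to interpolate endpoints linearly. Here, GI50 denotes the concentration required for 50% inhibition of growth. TGI is the concentration that stops growth completely.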
# Legend:
# Assay in all cases: NCI tumour cell line growth inhibition, 48 h
# CCRF-CEM leukemia = tested on: CCRF-CEM leukemia
# COLO 205 colon = tested on: COLO 205 colon
# HCT-15 colon = tested on: HCT-15 colon
# NCI-H23 lung = tested on: NCI-H23 lung
# RPMI-8226 leukemia = tested on: RPMI-8226 leukemia
# RXF 393 renal = tested on: RXF 393 renal
# SK-MEL-2 melanoma = tested on: SK-MEL-2 melanoma
# SK-MEL-5 melanoma = tested on: SK-MEL-5 melanoma
# UACC-257 melanoma = tested on: UACC-257 melanoma
# OVCAR-4 ovarian = tested on: OVCAR-4 ovarian
SMILES,TGI (CCRF-CEM leukemia) [µM],TGI (COLO 205 colon) [µM],TGI (HCT-15 colon) [µM],TGI (NCI-H23 lung) [µM],TGI (RPMI-8226 leukemia) [µM],TGI (RXF 393 renal) [µM],TGI (SK-MEL-2 melanoma) [µM],TGI (SK-MEL-5 melanoma) [µM],TGI (UACC-257 melanoma) [µM],GI50 (CCRF-CEM leukemia) [µM],GI50 (COLO 205 colon) [µM],GI50 (HCT-15 colon) [µM],GI50 (NCI-H23 lung) [µM],GI50 (RPMI-8226 leukemia) [µM],GI50 (RXF 393 renal) [µM],GI50 (SK-MEL-2 melanoma) [µM],GI50 (SK-MEL-5 melanoma) [µM],GI50 (UACC-257 melanoma) [µM],TGI (OVCAR-4 ovarian) [µM]
CS(C)(=O)=Nn1c(=O)n2n(c1=O)[C@H]1CC[C@@H]2C1,> 100,> 100,> 100,> 100,> 100,> 100,> 100,> 100,> 100,,,,,,,,,,
C=CCn1c(C)nc2cc(Nc3nc(N4CCCC4)nc4nc[nH]c34)ccc21,> 100,> 100,> 100,> 100,> 100,> 100,> 100,> 100,> 100,54.5,3.16,> 100,> 100,> 100,> 100,> 100,> 100,> 100,
Cc1ccnn1CCc1ccc(Cl)cc1Cl,> 100,> 100,> 100,> 100,38.2,82.9,,37.7,> 100,,,,,,,,,,> 100
O=C1Sc2sc(=S)sc2SC1c1ccccc1 (stereo unspecified),91.5,> 63.6,36.8,> 100,> 100,76.6,> 100,> 100,> 100,,,,,,,,,,> 31.6
Cc1c2cnccc2c(C)c2c1c1ccccc1n2CCCCCCCl,> 50,> 34.1,> 50,> 50,> 48.9,> 50,> 50,> 50,> 50,,,,,,,,,,> 29.3
CC1=CC2=C(C=O)C(=O)[C@](C)(O)[C@@H](O)C2=CO1,59.3,> 82,> 100,> 100,47.1,52.3,62.2,68.1,> 100,,,,,,,,,,> 100
